One assay has as its target T1, TLR7 (Homo sapiens, UniProt Q9NYK1).
T1 construct: host or cells: HEK293 (HEK-BLUE-hTLR7)
T1 sequence (Q9NYK1 27-1049): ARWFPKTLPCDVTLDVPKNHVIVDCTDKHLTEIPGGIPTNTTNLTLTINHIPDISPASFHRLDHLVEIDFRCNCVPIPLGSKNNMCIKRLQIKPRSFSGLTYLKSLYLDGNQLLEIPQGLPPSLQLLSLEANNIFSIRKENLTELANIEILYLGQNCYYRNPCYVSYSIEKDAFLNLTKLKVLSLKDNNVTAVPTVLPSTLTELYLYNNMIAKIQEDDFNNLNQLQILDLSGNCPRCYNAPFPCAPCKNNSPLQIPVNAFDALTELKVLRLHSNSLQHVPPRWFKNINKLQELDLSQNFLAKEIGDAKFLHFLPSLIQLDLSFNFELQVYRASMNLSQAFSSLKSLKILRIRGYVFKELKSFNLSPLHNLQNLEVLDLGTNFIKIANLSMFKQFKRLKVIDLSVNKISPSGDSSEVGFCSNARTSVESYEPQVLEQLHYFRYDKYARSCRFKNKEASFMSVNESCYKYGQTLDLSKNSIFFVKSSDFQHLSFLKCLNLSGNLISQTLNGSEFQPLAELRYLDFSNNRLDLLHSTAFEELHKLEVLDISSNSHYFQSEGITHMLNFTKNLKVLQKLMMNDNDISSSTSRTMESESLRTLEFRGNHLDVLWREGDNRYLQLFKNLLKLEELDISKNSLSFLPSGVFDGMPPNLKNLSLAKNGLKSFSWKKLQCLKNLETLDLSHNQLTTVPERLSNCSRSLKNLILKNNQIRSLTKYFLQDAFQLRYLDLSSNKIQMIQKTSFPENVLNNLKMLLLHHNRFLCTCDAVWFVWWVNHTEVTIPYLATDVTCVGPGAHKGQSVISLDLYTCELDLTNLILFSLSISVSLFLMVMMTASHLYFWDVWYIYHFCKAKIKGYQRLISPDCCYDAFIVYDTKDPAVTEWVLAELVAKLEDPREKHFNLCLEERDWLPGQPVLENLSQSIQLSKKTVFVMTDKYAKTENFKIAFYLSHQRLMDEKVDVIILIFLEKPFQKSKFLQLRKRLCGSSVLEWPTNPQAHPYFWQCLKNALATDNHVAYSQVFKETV
The experiment in a line: HEK-BLUE-hTLR7 cell SEAP reporter assay (Quanti-Blue). Type of assay: cell-based. The settings on record: HEK-BLUE-hTLR7 cells, 0.5 nM to 15 µM, 24 hours. The protocol: (§1) In this experiment, the biological activity of TLR7 and TLR8 in the compound of formula I was detected using cell tests. This method was conducted in human embryonic kidney cells (HEK293) expressing TLR family members such as TLR4, TLR7, TLR8 or TLR9. TLR agonists activate TLRs, triggering the activation of downstream NF-kB, which in turn activates the secreted embryonic alkaline phosphatase (SEAP) reporter gene. The activity of SEAP was detected using the Quanti-Blue (InvivoGen) reagent, thereby reflecting the activities of TLR7 and TLR8 agonists.
(§2) The detailed experimental method was as follows: HEK-BLUE-hTLR7 and HEK-BLUE-hTLR8 cell lines were purchased from Invivogen Company and cultured in DMEM medium containing 4.5 g/L glucose (Sigma-Aldrich) and 10% fetal bovine serum under the conditions of temperature 37°C, humidity 95% and 5% CO2.
(§3) The compound was tested at a concentration ranging from 0.5 nM to 15 µM over a total of 10 concentration gradients. TLR7 or TLR8 agonists with known activity were added as positive controls, and 1 µL of DMSO was added as a negative control.
(§4) The cells were treated as follows: the cells were removed from the culture dish and centrifuged to remove the medium, and resuspended in a T-150 bottle with 10 mL of preheated PBS, 12 mL of preheated medium was added, and the cells were gently pipetted up and down and counted under a microscope. A 200,000/mL single-cell suspension was immediately prepared with medium and added to a 96-well plate at 200 µL/well (40,000/well). The final concentration of DMSO was 0.5%.
(§5) The compound was added and incubated in an incubator at 37°C, 5% CO2 for 24 hours.
(§6) A supernatant at 20 µL/well was aspirated into 180 µL of preheated Quanti-Blue at 37°C, incubated at 37°C for 1.5 hours, and detected for the absorbance (OD value) with a spectrophotometer at 650 nm. The formula for calculating the agonistic effect is as follows:
(§7) Effect % = (average OD value of the drug-administered group - average OD value of the DMSO group) / (average OD value of the positive drug group - average OD value of the DMSO group) × 100
(§8) Graphpad software was used to fit the concentration-effect curve, and EC50 was calculated. The test results are shown in Table 15 (A denotes < 250 nM, B denotes 250 nM-1 µM, C denotes 1 µM-2 µM, D denotes > 2 µM, and - denotes not listed or not tested): Table 15
A general note: In a reporter assay the amount or activity of a reporter protein is the signal.

In the next assay the target is T2, TLR8 (Homo sapiens, UniProt Q9NR97).
T2 construct: host or cells: HEK293 (HEK-BLUE-hTLR8)
T2 sequence (Q9NR97 27-1041): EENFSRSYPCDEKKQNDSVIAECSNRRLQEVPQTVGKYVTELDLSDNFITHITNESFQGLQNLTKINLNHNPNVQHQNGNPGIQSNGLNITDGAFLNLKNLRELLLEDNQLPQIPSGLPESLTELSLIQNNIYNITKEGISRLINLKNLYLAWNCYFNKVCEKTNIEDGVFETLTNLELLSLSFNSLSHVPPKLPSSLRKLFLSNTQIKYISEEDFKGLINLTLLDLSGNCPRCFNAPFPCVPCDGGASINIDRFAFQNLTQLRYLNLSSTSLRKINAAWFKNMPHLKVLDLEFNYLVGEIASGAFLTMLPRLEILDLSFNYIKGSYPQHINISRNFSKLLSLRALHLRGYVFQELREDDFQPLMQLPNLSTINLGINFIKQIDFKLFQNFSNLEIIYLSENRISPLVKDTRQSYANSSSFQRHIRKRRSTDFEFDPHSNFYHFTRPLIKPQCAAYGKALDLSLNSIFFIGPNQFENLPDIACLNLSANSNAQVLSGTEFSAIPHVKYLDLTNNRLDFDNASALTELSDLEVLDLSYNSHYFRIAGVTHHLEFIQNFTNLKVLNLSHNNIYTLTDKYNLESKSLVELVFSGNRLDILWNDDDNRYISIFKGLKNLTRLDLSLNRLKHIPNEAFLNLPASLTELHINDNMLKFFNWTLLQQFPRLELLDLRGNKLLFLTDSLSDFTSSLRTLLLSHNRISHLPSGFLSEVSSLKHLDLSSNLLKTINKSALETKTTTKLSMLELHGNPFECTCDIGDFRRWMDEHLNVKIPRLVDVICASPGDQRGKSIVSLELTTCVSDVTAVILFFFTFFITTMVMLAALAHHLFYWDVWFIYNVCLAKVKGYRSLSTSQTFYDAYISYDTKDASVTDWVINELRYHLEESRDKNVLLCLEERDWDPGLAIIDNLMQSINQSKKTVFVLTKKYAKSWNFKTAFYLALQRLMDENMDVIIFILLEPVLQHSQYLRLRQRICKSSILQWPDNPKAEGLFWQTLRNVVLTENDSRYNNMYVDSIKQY
The experiment in a line: HEK-BLUE-hTLR8 cell SEAP reporter assay (Quanti-Blue). As to conditions: HEK-BLUE-hTLR8 cells, 0.5 nM to 15 µM, 24 hours. Type of assay: cell-based. On the procedure: as §1, §2, §3, §4, §5, §6, §7, §8

pEC50: −log10 of the molar value.

A word on the pEC50: it is −log10 of the EC50, conventionally taken in molar units. Regarding `CCCN(CCC)C(=O)C1=Cc2c(F)cc(C3(C(=O)Nc4cnc5c(c4)CNCC5)CC3)cc2N=C(N)C1` [Compound 3, 2-amino-6-fluoro-N,N-dipropyl-8-(1-((5,6,7,8-tetrahydro-1,6-naphthyridin-3-yl)carbamoyl)cyclopropyl)-3H-benzo[b]azepine-4-formamide], the pEC50 was below 5.70 at TLR7 and above 6.60 on TLR8.

`CCCN(CCO)C(=O)C1=Cc2ccc(C3(C(=O)Nc4cncc(CN)c4)CC3)cc2N=C(N)C1` [Compound 7, 2-amino-8-(1-((5-(aminomethyl)pyridin-3-yl)carbamoyl)cyclopropyl)-N-(2-hydroxyethyl)-N-propyl-3H-benzo[b]azepine-4-formamide]: the results for the pEC50 at TLR7 and on TLR8 were below 5.70 and above 6.60, respectively.

As for `CCCN(CCO)C(=O)C1=Cc2c(F)cc(C3(C(=O)Nc4cnc5c(c4)CNCC5)CC3)cc2N=C(N)C1` [Compound 6, 2-amino-6-fluoro-N-(2-hydroxyethyl)-N-propyl-8-(1-((5,6,7,8-tetrahydro-1,6-naphthyridin-3-yl)carbamoyl)cyclopropyl)-3H-benzo[b]azepine-4-formamide], the negative-log EC50 (pEC50) at TLR7 was below 5.70; at TLR8, 6.00 to 6.60.

As to `CCCN(CCO)C(=O)C1=Cc2ccc(C3(C(=O)Nc4cnc5c(c4)CNCC5)CC3)cc2N=C(N)C1` [Compound 2, 2-amino-N-(2-hydroxyethyl)-N-propyl-8-(1-((5,6,7,8-tetrahydro-1,6-naphthyridin-3-yl)carbamoyl)cyclopropyl)-3H-benzo[b]azepine-4-formamide], the pEC50 was below 5.70 on TLR7 and 6.00 to 6.60 at TLR8.

On to `CCCN(CCO)C(=O)C1=Cc2ccc(C3(C(=O)Nc4cnc5c(c4)CN(C(=O)CCOCCOCCNC(=O)[C@H](CCCNC(N)=O)NC(=O)[C@@H](NC(=O)CCCCCN4C(=O)C=CC4=O)C(C)C)CC5)CC3)cc2N=C(N)C1` [II-17, 2-amino-8-(1-((6-((12S,15S)-22-(2,5-dioxo-2,5-dihydro-1H-pyrrol-1-yl)-15-isopropyl-11,14,17-trioxo-12-(3-ureidopropyl)-4,7-dioxa-10,13,16-triazabehenoyl)-5,6,7,8-tetrahydro-1,6-naphthyridin-3-yl)carbamoyl)cyclopropyl)-N-(2-hydroxyethyl)-N-propyl-3H-benzo[b]azepine-4-formamide], for which the pEC50 on TLR8 is 6.00 to 6.60.

Regarding `CCCN(CCC)C(=O)C1=Cc2ccc(C3(C(=O)Nc4cnc5c(c4)CNCC5)CC3)cc2N=C(N)C1` [Compound 1, 2-amino-N,N-dipropyl-8-(1-((5,6,7,8-tetrahydro-1,6-naphthyridin-3-yl)carbamoyl)cyclopropyl)-3H-benzo[b]azepine-4-formamide], the pEC50 at TLR7 is below 5.70; on TLR8, above 6.60.

(Values after patent EP4596536A1 (Shanghai de Novo Pharmatech Co., Ltd., priority 2022, dated 2024).)
